Measurements: paper PMC12029786 (2025)

What was measured:
[1] = test system: Karashi (17-3min RNA) (RNA, aptamer) GGGCUGAAUGAAGAGCAGUAGCGAGUAGUUCACAAGCUUCGGCUUGUAGGAAGUAAAUGUGCAAAUCCGUAACUAGCCU; assay: fluorescence enhancement; details: 10 mM Mg2+; 40 mM Tris-Cl pH 7.5, 37 °C; 0.1 μM RNA, 0.1 μM DMHBI
[2] = test system: Karashi A51G (RNA, aptamer) GGGCUGAAUGAAGAGCAGUAGCGAGUAGUUCACAAGCUUCGGCUUGUAGGGAGUAAAUGUGCAAAUCCGUAACUAGCCU; assay: fluorescence enhancement; details: 10 mM Mg2+; 40 mM Tris-Cl pH 7.5, 37 °C; 0.1 μM RNA, 0.1 μM DMHBI
[3] = test system: 17-3minCP (RNA, aptamer) GGGCUUGUAGGAAGUAAAUGUGCAAAUCCGUAACUAGCUUCGGCUGAAUGAAGAGCAGUAGCGAGUAGUUCACAAGCCU; assay: fluorescence enhancement; details: 10 mM Mg2+; 40 mM Tris-Cl pH 7.5, 37 °C; 0.1 μM RNA, 0.1 μM DMHBI
[4] = test system: 17-3 RNA (RNA, aptamer) GGGAGACGCAACUGAAUGAAGAGCAGUAGCGAGUAGUUCACAAGAGCUGCUUCGGCAGGAUCUUGUAGGAAGUAAAUGUGCAAAUCCGUAACUAGUCGCGUCAC; assay: fluorescence enhancement titration; details: 50 mM Mg2+; 40 mM Tris-Cl pH 7.5, 37 °C; 5 nM DMHBI titrated with RNA; Hill fit
[5] = test system: m1 mutant of 17-3min RNA (RNA, aptamer) GGGCUGUUUGAAGAGCAGUAGCGAGUAGAACACAAGCUUCGGCUUGUAGGAAGUAAAUGUGCAAAUCCGUAACUAGCCU; assay: fluorescence enhancement; details: 10 mM Mg2+; 40 mM Tris-Cl pH 7.5, 37 °C; 0.1 μM RNA, 0.1 μM DMHBI
[6] = test system: Jigarashi RNA (RNA, aptamer) GGUUUCCCCGAAGAGCAGUAGCGAGUAGGGGCCCAGCUUCGGCUGGGAGGAAGUAAAUGUGCAAAUCCGUAACUAAACU; assay: fluorescence enhancement; details: 10 mM Mg2+; 40 mM Tris-Cl pH 7.5, 37 °C; 0.1 μM RNA, 0.1 μM DMHBI
[7] = test system: m3 mutant of Karashi RNA (RNA, aptamer) GGGCUGCCUGAAGAGCAGUAGCGAGUAGGGCACAAGCUUCGGCUUGUAGGAAGUAAAUGUGCAAAUCCGUAACUAGCCU; assay: fluorescence enhancement; details: 10 mM Mg2+; 40 mM Tris-Cl pH 7.5, 37 °C; 0.1 μM RNA, 0.1 μM DMHBI
[8] = test system: fr-1 RNA + fr-2 RNA (RNA, aptamer) GGUUUCCCCGAAGAGCAGUAGCGAGUAGGGGCCCAGCU/GGCUGGGAGGAAGUAAAUGUGCAAAUCCGUAACUAAACU; assay: fluorescence enhancement; details: 10 mM Mg2+; 40 mM Tris-Cl pH 7.5, 37 °C; 0.1 μM each RNA, 0.1 μM DMHBI
[9] = test system: Karashi G69A (RNA, aptamer) GGGCUGAAUGAAGAGCAGUAGCGAGUAGUUCACAAGCUUCGGCUUGUAGGAAGUAAAUGUGCAAAUCCAUAACUAGCCU; assay: fluorescence enhancement; details: 10 mM Mg2+; 40 mM Tris-Cl pH 7.5, 37 °C; 0.1 μM RNA, 0.1 μM DMHBI

- binding [1]: yes
- binding [2]: yes
- binding [3]: yes
- Kd [4]: 43 nM
- binding [5]: yes
- binding [6]: yes
- binding [7]: yes
- binding [8]: yes
- binding [9]: yes
Structure (SMILES): COc1cc(/C=C2\N=C(C)N(C)C2=O)cc(OC)c1O
